Results: patent US20140329776A1, “Mitochondria-Targeted Antioxidants for Treatment of Age-Related Brain Disorders” (MITOTECH S.A., priority 2011, published 2014)

What was measured:
Wistar rats [1] = assay: elevated plus maze test 24 hours after ethanol narcosis; type: in vivo, rat; conditions: 250 nM SkQ1 group; p<0.05
Description: FIG. 8 is a graphic representation showing behavior parameters in the elevated plus maze test 24 hours after ethanol narcosis in % to negative control. (*−p<0.05 to intact control);
(§1) In these experiments, 6 groups of experimental animals (Wistar rats) were used. (1) The Intact Control group (n=12), had no ethanol narcosis, and were orally administered a normal isotonic 0.9% NaCl solution; (2) the Negative Control group (n=12) was orally administered a normal physiological solution after ethanol narcosis; (3) The SkQ1 50 nM control group (n=12) was orally administered SkQ1 in a concentration 50 nM after ethanol narcosis; (4) The SkQ1 250 nM control group (n=12) was orally administered SkQ1 in a concentration of 250 nM after ethanol narcosis; (5) The SkQ1 1250 nM control group (n=12) was orally administered SkQ1 in a concentration of 1250 nM after ethanol narcosis; (6) the SkQ1 1250 nM intr control group (n=13) was intraperitoneally administered SkQ1 in a concentration of 1250 nM after ethanol narcosis.
Twenty-four hours after ethanol narcosis, elevated plus maze (Treit et al. (1993) Pharmacol. Biochem. Behav. 44:463-9) and Porsolt forced swimming (Petit-Demouliere et al. (2005) Psychopharmacol. (Berl). 177: 245-55) tests were performed. […]

Wistar rats [2] = assay: open field test 4 hours after ethanol narcosis; type: in vivo, rat; conditions: SkQ1 250 nM orally after ethanol narcosis; vs negative control, p<0.05
Description: FIG. 5 is a schematic representation of the behavior parameters in the open field test 4 hours after ethanol narcosis of all groups in % to intact control. (*−p<0.05 for SKQ-1 250 nM compared to negative control);
as §1
In the Negative Control group ethanol intoxication caused a decrease of locomotor activity compared to Intact Control group: decreased track length (p<0.05), movement time (p<0.05), mean speed (p<0.05) and increased immobilization time (p<0.05) (FIG. 4). […]

[3] = system: chronically alcoholised rats; assay: Porsolt forced swimming test of chronically alcoholised rats; type: in vivo, rat; conditions: SkQ1 250 nM solution orally every two days for 20 days; p<0.05
Description: FIG. 11 is a graphic representation showing behavior parameters in the Porsolt forced swimming test of chronically alcoholised rats in % to intact control. (*−p<0.05 SKQ-1 to negative control); and
(§2) Male albino rats had free access to a 15% ethanol solution, as well as to food and water. After 6 months of alcoholisation, animals with average consumption more than 11 ml of 15% ethanol solution were divided into two even groups and subjected to the following treatment. The Negative Control group (n=16) (chronically alcoholised rats) were orally administered 1 ml per kg of isotonic 0.9% NaCl solution every two days for 20 days during alcohol deprivation. The SkQ1 group (n=17) (chronically alcoholised rats) were orally administered 1 ml per kg of SkQ1 250 nM solution every two days for 20 days during alcohol deprivation. The Intact Control group (n=10) (animals had no previous contact with ethanol) were orally administered 1 ml per kg of normal physiological solution every two days for 20 days.
(§3) After this course of drug administration, the effect on behavioral parameters was observed using the open field test, the elevated plus maze test, and the Porsolt forced swimming test.

[4] = system: hippocampal slice neurons; assay: long-term potentiation (LTP) of hippocampal slices treated with Aβ after in vivo treatment; parameters: species or system rat
Description: FIG. 3B is a graphic representation showing the LTP caused by in vitro addition of Aβ, where the decay of LTP of hippocampal slice neurons characterized by a decrease of pop-spike amplitude (%) in a hippocampal slice treated with Aβ.
SkQR1 Aβ was added 15 min before the LTP induction with high-frequency electric stimulation (arrow). The decay of LTP (i.e. decrease of pop-spike amplitude) in a hippocampal slice treated with Aβ can be prevented by SkQR1 treatment.
FIG. 16 is a bar graph comparing the neuroprotective effects of preferred SkQ mitochondria-targeted antioxidants of the invention when administered in vivo in a model of Alzheimer disease.
As a model of cell memory, an electric response of a hippocampal slice (long-term potentiation, LTP) was used (Malenka, et al., Science 285:1870-1874 (1999)). A direct experiment was performed showing the prevention of Aβ toxicity in hippocampus by in vivo treatment of rats with 1 μmol SkQR1 per kg of body weight. The compound was injected intraperitoneally into the animal 24 hours before hippocampal slices were obtained to measure LTP. Some slices were pretreated with Aβ for 15 minutes. As is seen in FIG. 3B, Aβ impaired LTP relative to untreated control.
FIG. 16 provides a comparison of the neuroprotective effects of SkQ1, SkQR1 and C12TPP based on the LTP signal in neurons of hippocampal slices. Ab stands for beta-amyloid treatment. […] All SkQs and C12TPP were administered in vivo to rats prior the extraction of hippocampus.

Wistar rats [5] = conditions: open field test; cited from earlier work
[6] = system: chronically alcoholised rats; assay: elevated plus maze test of chronically alcoholised rats; type: in vivo, rat; conditions: SkQ1 250 nM solution orally every two days for 20 days, vs Negative Control
Description: FIG. 10 is a graphic representation showing behavior parameters in the elevated plus-maze test of chronically alcoholised rats in % to intact control. (*−p<0.05; ** −p<0.005 to negative control; #—p<0.05, ##—p<0.01, to intact control);
as §2, §3

CC1=C(C)C(=O)C(CCCCCCCCCC[P+](c2ccccc2)(c2ccccc2)c2ccccc2)=CC1=O [SkQ1, plastoquinonyl decyltriphenyl-phosphonium]
looking out from closed arms (Wistar rats [1]): increased
number of risk behavior (Wistar rats [1]): increased
immobilization time (Wistar rats [2]): decreasing
track length (Wistar rats [2]): increasing
immobilization time [3]: less
neuroprotective activity based on LTP signal, model of Alzheimer disease ([4]; administered in vivo to rats prior to extraction of hippocampus, beta-amyloid treatment, FIG. 16): neuroprotective activity
impairment (decay) of LTP caused by Aβ ([4]; in vivo treatment (SkQR1 1 μmol/kg i.p. 24 hours before slices), Aβ added to slices for 15 min): prevents decay
difference in number of squares crossed between 14-month-old and 3-month-old rats (Wistar rats [5]): abolished
number of looking out from closed arms [6]: increased
rearing ([6]; p<0.005): increased
movement time in central zone ([6]; p<0.05): increased
track length in closed arms ([6]; p<0.05): increased
